Test [1] addresses [35S]-TBPS binding, rat brain cortical membranes. The experiment in a line: Steroid inhibition of [35S]-TBPS binding. The conditions noted are these: 3 nM [35S]-TBPS, in the presence of 5 mM GABA. Summed up: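 Rat cortical P2 membranes incubated 90 min at room temperature with 3 nM [35S]-TBPS, […] and test compound (0.5% DMSO final) in NaCl/Na–K phosphate pH 7.4; nonspecific binding with […]. Filter-bound radioactivity counted; IC50 and Imax from nonlinear fits, mean ± SEM.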

Test [2] addresses human GABAA receptors composed of the α1β2γ2 subunits (Homo sapiens (Human), UniProt P14867+P18507+P47870). The experiment in a line: α1β2γ2 SyncroPatch automated patch clamp assay. It counts as cell-based. The conditions noted are these: for EC50: HEK cells, potentiation of submaximal GABA current, clamped at −120 mV; for α1β2γ2 EMAX: peak current after GABA+compound divided by peak current after GABA alone. Here is the method: (§1) The SyncroPatch 384PE (Nanion, Germany) automated patch clamp platform was used to obtain recordings from human embryonic kidney cells stably expressing human GABAA receptors composed of the α1β2γ2 and α4β3δ subunits. Cells were bathed in an extracellular solution containing: 140 mM NaCl, 4 mM KCl, 2 mM CaCl2), 1 mM MgCl2, 10 mM HEPES, 5 mM glucose and 0.1% DMSO. Solution was maintained at pH 7.4 with NaOH and 300 mOsm/L. Chips with multi-hole (4×) medium resistance (2-3M) are used for the recombinant cell line experiments. Once harvested, cells are stored in extracellular solution set to 10° C. in the cell hotel with a minimum shaking speed of 200 rpm before addition to the chip at the beginning of each experiment. Whole cell patch clamp recordings were made using an intracellular solution containing: 90 mM KCl, 50 mM KF, 1.5 mM MgCl2, 11.1 mM EGTA and 10 mM HEPES, 2 mM NaATP, maintained at pH 7.2 with KOH. Currents are leak corrected (using P/2 leak correction protocol) and sampled at 5 kHz. Cells were clamped at −120 mV. After establishing a stable baseline, a submaximal concentration of GABA (3-5 μM for cells expressing α1β2γ2 and 10 μM for cells expressing […]) was applied at a rate of 10 μl/second, immediately followed by application of GABA+compound (10 μl/second) at a single concentration of compound per cell. Compounds were tested at six concentrations (0.029, 0.12, 0.47, 1.88, 7.5, and 30 μM) in n=8-12 cells per concentration. Compound effect was determined by dividing peak current amplitude after GABA+compound by peak current amplitude after GABA alone. EC50 and Emax values were determined from average values for each concentration.

Test [3] deals with human GABAA receptors composed of the α4β3δ subunits (Homo sapiens (Human), UniProt O14764+P28472+P48169). Kind of test: α4β3δ SyncroPatch automated patch clamp assay. The format is cell-based. As to conditions: for EC50: HEK cells, potentiation of submaximal GABA current, clamped at −120 mV; for α4β3δ EMAX: peak current after GABA+compound divided by peak current after GABA alone. Here is the method:
as §1
A general note: Patch clamp records ionic current or voltage across a cell membrane.

Each structure is given as a SMILES string. Where only a bound is given, the exact number is not on record here.

human GABAA receptors composed of the α1β2γ2 subunits, sequence (P14867 28-456 limits assumed): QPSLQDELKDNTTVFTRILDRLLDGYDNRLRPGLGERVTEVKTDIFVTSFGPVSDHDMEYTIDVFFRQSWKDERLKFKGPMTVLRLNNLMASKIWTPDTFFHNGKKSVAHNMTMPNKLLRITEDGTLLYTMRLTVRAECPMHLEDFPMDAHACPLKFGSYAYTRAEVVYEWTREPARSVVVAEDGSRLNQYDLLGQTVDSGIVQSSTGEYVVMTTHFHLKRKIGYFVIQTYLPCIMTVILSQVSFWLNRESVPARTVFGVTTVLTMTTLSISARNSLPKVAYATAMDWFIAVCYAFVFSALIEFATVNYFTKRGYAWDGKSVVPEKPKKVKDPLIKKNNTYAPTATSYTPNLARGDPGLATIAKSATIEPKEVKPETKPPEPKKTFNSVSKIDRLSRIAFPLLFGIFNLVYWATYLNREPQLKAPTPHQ
human GABAA receptors composed of the α1β2γ2 subunits, sequence (P47870 25-512 limits assumed): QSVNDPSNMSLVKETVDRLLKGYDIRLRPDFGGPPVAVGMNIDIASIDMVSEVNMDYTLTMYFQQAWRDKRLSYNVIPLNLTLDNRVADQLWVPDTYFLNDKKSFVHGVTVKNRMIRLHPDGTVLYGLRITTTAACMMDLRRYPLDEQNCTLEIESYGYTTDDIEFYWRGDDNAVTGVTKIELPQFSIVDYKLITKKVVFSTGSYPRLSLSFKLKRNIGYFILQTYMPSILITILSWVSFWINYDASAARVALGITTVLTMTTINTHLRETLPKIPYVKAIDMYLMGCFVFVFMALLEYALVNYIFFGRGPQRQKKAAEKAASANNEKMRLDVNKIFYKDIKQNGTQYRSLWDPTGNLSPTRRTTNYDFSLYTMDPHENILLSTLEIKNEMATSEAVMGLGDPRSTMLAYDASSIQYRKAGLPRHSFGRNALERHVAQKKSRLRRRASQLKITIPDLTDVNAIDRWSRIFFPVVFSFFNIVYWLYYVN
human GABAA receptors composed of the α1β2γ2 subunits, sequence (P18507 40-475 limits assumed): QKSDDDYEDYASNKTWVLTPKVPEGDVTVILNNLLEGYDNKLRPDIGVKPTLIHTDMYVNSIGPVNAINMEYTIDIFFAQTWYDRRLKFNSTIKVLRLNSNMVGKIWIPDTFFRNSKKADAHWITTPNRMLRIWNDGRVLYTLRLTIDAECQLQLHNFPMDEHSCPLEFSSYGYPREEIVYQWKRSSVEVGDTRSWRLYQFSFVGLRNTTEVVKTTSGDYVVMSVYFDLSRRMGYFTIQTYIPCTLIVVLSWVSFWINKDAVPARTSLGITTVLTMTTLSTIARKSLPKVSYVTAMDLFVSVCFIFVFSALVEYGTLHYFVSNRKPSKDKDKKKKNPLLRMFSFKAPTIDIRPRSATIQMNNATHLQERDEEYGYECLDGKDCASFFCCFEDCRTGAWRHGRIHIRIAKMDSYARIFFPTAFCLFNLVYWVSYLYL
human GABAA receptors composed of the α4β3δ subunits, sequence (P48169 36-554 limits assumed): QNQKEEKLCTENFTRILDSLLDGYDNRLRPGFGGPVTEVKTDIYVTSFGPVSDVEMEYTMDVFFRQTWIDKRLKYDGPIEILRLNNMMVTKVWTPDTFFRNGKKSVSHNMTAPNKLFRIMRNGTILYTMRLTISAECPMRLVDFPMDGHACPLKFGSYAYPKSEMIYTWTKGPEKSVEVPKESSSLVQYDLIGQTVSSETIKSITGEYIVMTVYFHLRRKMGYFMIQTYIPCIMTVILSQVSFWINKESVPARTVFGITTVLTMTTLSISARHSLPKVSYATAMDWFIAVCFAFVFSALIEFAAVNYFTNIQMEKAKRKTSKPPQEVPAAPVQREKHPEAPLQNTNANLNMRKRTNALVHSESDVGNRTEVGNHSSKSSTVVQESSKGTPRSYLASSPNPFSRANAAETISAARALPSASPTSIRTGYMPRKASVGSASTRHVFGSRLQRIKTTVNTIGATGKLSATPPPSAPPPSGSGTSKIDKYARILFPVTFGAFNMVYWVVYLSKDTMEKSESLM
human GABAA receptors composed of the α4β3δ subunits, sequence (P28472 26-473 limits assumed): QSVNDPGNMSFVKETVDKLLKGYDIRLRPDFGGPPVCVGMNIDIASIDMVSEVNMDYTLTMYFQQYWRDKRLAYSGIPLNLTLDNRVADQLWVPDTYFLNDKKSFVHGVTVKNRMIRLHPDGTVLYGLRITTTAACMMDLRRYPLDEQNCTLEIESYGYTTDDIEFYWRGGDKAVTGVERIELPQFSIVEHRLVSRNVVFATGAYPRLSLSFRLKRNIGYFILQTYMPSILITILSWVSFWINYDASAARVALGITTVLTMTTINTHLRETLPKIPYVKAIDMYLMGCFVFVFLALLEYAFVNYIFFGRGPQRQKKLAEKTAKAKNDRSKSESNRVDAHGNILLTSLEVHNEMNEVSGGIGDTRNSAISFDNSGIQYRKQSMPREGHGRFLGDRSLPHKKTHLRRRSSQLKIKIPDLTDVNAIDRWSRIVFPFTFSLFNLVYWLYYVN
human GABAA receptors composed of the α4β3δ subunits, sequence (O14764 17-452 limits assumed): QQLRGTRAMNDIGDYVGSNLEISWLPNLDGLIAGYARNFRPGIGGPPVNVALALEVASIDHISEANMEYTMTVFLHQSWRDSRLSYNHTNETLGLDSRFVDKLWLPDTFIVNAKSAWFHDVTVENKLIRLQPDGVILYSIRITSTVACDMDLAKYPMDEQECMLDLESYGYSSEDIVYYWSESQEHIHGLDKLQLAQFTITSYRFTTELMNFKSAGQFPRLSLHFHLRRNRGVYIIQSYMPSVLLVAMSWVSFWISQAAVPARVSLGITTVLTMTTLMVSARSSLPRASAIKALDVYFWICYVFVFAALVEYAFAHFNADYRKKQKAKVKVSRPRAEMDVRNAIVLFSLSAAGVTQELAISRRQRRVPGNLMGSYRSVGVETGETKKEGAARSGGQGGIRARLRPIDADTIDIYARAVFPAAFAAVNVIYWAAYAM

`CCOC[C@@]1(O)CC[C@H]2[C@H](CC[C@@H]3[C@@H]2CC[C@]2(C)[C@@H]([C@H](Cn4nnc(C)n4)C(F)(F)F)CC[C@@H]32)C1` [Example 358, (3R,5R,8R,9R,10S,13S,14S,17R)-3-(ethoxymethyl)-13-methyl-17-((R)-1,1,1-trifluoro-3-(5-methyl-2H-tetrazol-2-yl)propan-2-yl)hexadecahydro-1H-cyclopenta[a]phenanthren-3-ol]: in test [1], the IC50 (commonly the concentration needed to halve the response being measured) lay in the range of 100 to 1000 nM. Further, in test [2], the EC50 (commonly the midpoint of the concentration-response curve) was at least 1000 nM and the “α1β2γ2 EMAX” value is listed as “A (A indicates an Emax response <8)”. For the same molecule, in test [3], the EC50 is at least 1000 nM and the “α4β3δ EMAX” value is given as “B (B indicates an Emax response 30 to <45)”.
`CCOC[C@@]1(O)CC[C@H]2[C@H](CC[C@@H]3[C@@H]2CC[C@]2(C)[C@@H]([C@@H](C)Nc4cccc(N5CCCC5=O)n4)CC[C@@H]32)C1` [Example 263]: in test [1], the IC50 was below 100 nM. In addition, in test [2], the 50% effective concentration (EC50) was 200 to 1000 nM and the “α1β2γ2 EMAX” value is given as “A (A indicates an Emax response <8)”. Moreover, in test [3], the 50% effective concentration (EC50) fell in the range of 200 to 1000 nM and the “α4β3δ EMAX” value was “A (A indicates an Emax response <30)”.
With `C[C@@H](Cn1cc(C#N)cn1)[C@H]1CC[C@H]2[C@@H]3CC[C@@H]4C[C@@](O)(C5CC5)CC[C@@H]4[C@H]3CC[C@]12C` [Example 341, 1-((R)-2-((3R,5R,8R,9R,10S,13S,14S,17R)-3-cyclopropyl-3-hydroxy-13-methylhexadecahydro-1H-cyclopenta[a]phenanthren-17-yl)propyl)-1H-pyrazole-4-carbonitrile], the IC50 in test [1] was below 100 nM. Moreover, in test [2], the concentration for a half-maximal effect (EC50) is below 200 nM and the “α1β2γ2 EMAX” value was “A (A indicates an Emax response <8)”. Further, in test [3], the EC50 was below 200 nM and the “α4β3δ EMAX” value is listed as “A (A indicates an Emax response <30)”.
`CCC[C@@]1(O)CC[C@H]2[C@H](CC[C@@H]3[C@@H]2CC[C@]2(C)[C@@H]([C@@H](C)Cn4nnc(C)n4)CC[C@@H]32)C1` [Example 294, (3R,5R,8R,9R,10S,13S,14S,17R)-13-methyl-17-((R)-1-(5-methyl-2H-tetrazol-2-yl)propan-2-yl)-3-propylhexadecahydro-1H-cyclopenta[a]phenanthren-3-ol]: in test [1], the concentration for half-maximal inhibition (IC50) is below 100 nM. Besides, in test [2], the concentration for a half-maximal effect (EC50) was 200 to 1000 nM and the “α1β2γ2 EMAX” value is on record as “C (C indicates an Emax response ≥10)”. Moreover, in test [3], the EC50 lay within 200 to 1000 nM and the “α4β3δ EMAX” value is listed as “B (B indicates an Emax response 30 to <45)”.
For the molecule `CCOC[C@@]1(O)CC[C@H]2[C@H](CC[C@@H]3[C@@H]2CC[C@]2(C)[C@@H]([C@H](CC)Cn4ccc(C#N)n4)CC[C@@H]32)C1` [Example 499, 1-((S)-2-((3R,5R,8R,9R,10S,13S,14S,17R)-3-(ethoxymethyl)-3-hydroxy-13-methylhexadecahydro-1H-cyclopenta[a]phenanthren-17-yl)butyl)-1H-pyrazole-3-carbonitrile], the IC50 in test [1] is below 100 nM. In test [2], the EC50 was below 200 nM and the “α1β2γ2 EMAX” value was “A (A indicates an Emax response <8)”. In test [3], the concentration giving a half-maximal response (EC50) is below 200 nM and the “α4β3δ EMAX” value was “A (A indicates an Emax response <30)”.
For `Cc1cnc(C[C@H](C)[C@H]2CC[C@H]3[C@@H]4CC[C@@H]5C[C@](C)(O)CC[C@@H]5[C@H]4CC[C@]23C)s1` [Example 430], the IC50 in test [1] was in the range of 100 to 1000 nM. In test [2], the concentration for a half-maximal effect (EC50) lay within 200 to 1000 nM and the “α1β2γ2 EMAX” value was “B (B indicates an Emax response 8 to <10)”. Moreover, in test [3], the half-maximal effective concentration (EC50) is below 200 nM and the “α4β3δ EMAX” value is reported as “A (A indicates an Emax response <30)”.
As to `COC[C@@]1(O)CC[C@H]2[C@H](CC[C@@H]3[C@@H]2CC[C@]2(C)[C@@H]([C@@H](C)Cc4ccc(C(F)(F)F)nc4)CC[C@@H]32)C1` [Example 420], the EC50 in test [2] and in test [3] was below 200 nM each time.
Turning to `CCC[C@@]1(O)CC[C@H]2[C@H](CC[C@@H]3[C@@H]2CC[C@]2(C)[C@@H]([C@@H](C)Cn4nnc(C)n4)[C@@H](O)C[C@@H]32)C1` [Example 365, (3R,5R,8R,9R,10S,13S,14S,16S,17R)-13-methyl-17-((R)-1-(5-methyl-2H-tetrazol-2-yl)propan-2-yl)-3-propylhexadecahydro-1H-cyclopenta[a]phenanthrene-3,16-diol], the 50% effective concentration (EC50) in test [2] was at least 1000 nM; in test [3], 200 to 1000 nM.
For `COC[C@@]1(O)CC[C@H]2[C@H](CC[C@@H]3[C@@H]2CC[C@]2(C)[C@@H]([C@H](C)NC(=O)c4ccc(OC(F)(F)F)cn4)CC[C@@H]32)C1` [Example 129], the IC50 in test [1] was 100 to 1000 nM.
On the same count and under the same terms, then `C[C@@]1(O)CC[C@H]2[C@H](CC[C@@H]3[C@@H]2CC[C@]2(C)[C@@H]([C@H](Nc4ccccc4)C(F)(F)F)CC[C@@H]32)C1` [Example 505], with 100 to 1000 nM; and `CCOC[C@@]1(O)CC[C@@]2(C)[C@H](CC[C@@H]3[C@@H]2CC[C@]2(C)[C@@H]([C@H](CC)Nc4ccc(C#N)nc4)CC[C@@H]32)C1` [Example 494, 5-(((S)-1-((3R,5R,8R,9S,10S,13S,14S,17S)-3-(ethoxymethyl)-3-hydroxy-10,13-dimethylhexadecahydro-1H-cyclopenta[a]phenanthren-17-yl)propyl)amino)picolinonitrile], with 100 to 1000 nM; and `Cc1cc(C#N)ccc1N[C@@H]([C@H]1CC[C@H]2[C@@H]3CC[C@@H]4C[C@](C)(O)CC[C@@H]4[C@H]3CC[C@]12C)C(F)(F)F` [Example 489, 3-methyl-4-(((S)-2,2,2-trifluoro-1-((3R,5R,8R,9R,10S,13S,14S,17S)-3-hydroxy-3,13-dimethylhexadecahydro-1H-cyclopenta[a]phenanthren-17-yl)ethyl)amino)benzonitrile], with 1000 to 10000 nM.
On the same count and under the same terms, the result for `CCC[C@@]1(O)CC[C@H]2[C@@H](CC[C@@H]3[C@@H]2CC[C@]2(C)[C@@H]([C@@H](C)Cn4cc(C#N)cn4)CC[C@@H]32)C1` [Example 349, 1-((R)-2-((3R,5S,8R,9R,10S,13S,14S,17R)-3-hydroxy-13-methyl-3-propylhexadecahydro-1H-cyclopenta[a]phenanthren-17-yl)propyl)-1H-pyrazole-4-carbonitrile] reads at least 10000 nM; that for `COC[C@@]1(O)CC[C@@]2(C)[C@H](CC[C@@H]3[C@@H]2[C@@H](O)C[C@]2(C)[C@@H]([C@@H](C)Cn4cc(C#N)cn4)CC[C@@H]32)C1` [Example 327, 1-((R)-2-((3R,5R,8S,9S,10S,11S,13S,14S,17R)-3,11-dihydroxy-3-(methoxymethyl)-10,13-dimethylhexadecahydro-1H-cyclopenta[a]phenanthren-17-yl)propyl)-1H-pyrazole-4-carbonitrile], 100 to 1000 nM; that for `CCC[C@@]1(O)CC[C@H]2[C@H](CC[C@@H]3[C@@H]2CC[C@@]2(C)[C@H]3CC[C@]2(O)[C@@H](C)Cn2cc(C#N)cn2)C1` [Example 347, 1-((S)-2-((3R,5R,8R,9R,10S,13S,14S,17S)-3,17-dihydroxy-13-methyl-3-propylhexadecahydro-1H-cyclopenta[a]phenanthren-17-yl)propyl)-1H-pyrazole-4-carbonitrile], 1000 to 10000 nM.
Take `CC[C@H](NCc1ccccc1)[C@H]1CC[C@H]2[C@@H]3CC[C@@H]4C[C@@](O)(COC)CC[C@@H]4[C@H]3CC[C@]12C` [Example 213, (3R,5R,8R,9R,10S,13S,14S,17S)-17-((S)-1-(benzylamino)propyl)-3-(methoxymethyl)-13-methylhexadecahydro-1H-cyclopenta[a]phenanthren-3-ol]: the 50% inhibitory concentration (IC50) in test [1] fell in the range of 1000 to 10000 nM.
`CCOC[C@@]1(O)CC[C@H]2[C@H](CC[C@@H]3[C@@H]2CC[C@]2(C)[C@@H]([C@@H](Nc4ccc(C#N)cc4C)C(F)(F)F)CC[C@@H]32)C1` [Example 488, 4-(((R)-1-((3R,5R,8R,9R,10S,13S,14S,17S)-3-(ethoxymethyl)-3-hydroxy-13-methylhexadecahydro-1H-cyclopenta[a]phenanthren-17-yl)-2,2,2-trifluoroethyl)amino)-3-methylbenzonitrile]: the concentration for half-maximal inhibition (IC50) in test [1] fell in the range of 1000 to 10000 nM.
